Columns and labels:
Assay type in all cases: biochemical
[1] = PPi release assay, adenylation activity with L-hydroxyphenylglycine; conditions: for adenylation activity (PPi release assay) / adenylation activity (absorption 360 nm, PPi release assay): substrate L-hydroxyphenylglycine
Text: (§1) These assays use inorganic pyrophosphatases to convert PPi produced during aminoacyl-AMP formation to orthophosphate (Pi). To measure Pi concentrations some of these assays use molybdate/malachite green reagent for colorimetric detection (McQuade et al. 2008) or, as used in the context of the present invention, a shift in absorbance maximum by conversion of 7-methyl-6-thioguanosine (MESG) by purine nucleoside phosphorylase (Ehmann D. E. et al. (Proc. Natl. Acad. Sci. (2000) 97, 2509-2514) or Daniel & Aldrich (Anal. Biochem. (2010) 404, 56-63)).
(§2) To determine the adenylation activity of the adenylation domains, the Enzchek® pyrophosphate assay kit (Life Technologies) was used as described by Ehmann D. E. et al. (Proc Nat Acad Science (2000) 97, 2509-2514) with small modifications. The reactions were performed 96 wells UV/Vis transparent plates (BD Falcon). The reaction mixture comprises 50 mM HEPES pH 8.0, 10 mM MgCl2, 5 mM ATP, 75 mM DTT, 0.03 U Inorganic Pyrophosphatase (IP), 1 U Purine Nucleoside Phosphorylase (PNP) and 0.2 mM MESG in a volume of 70 μl. Next 20 μl (around 0.5-2 μM final concentration) of purified A(T) domain, with or without co-purification of the MbtH like helper protein was added and the reaction was pre-incubated for 15 minutes at RT to reduce contaminating Pi. Following the pre-incubation, 10 μl of a 10 mM or 1 mM solution of the appropriate amino acid depending on the performed specificity determination was added to initiate the adenylation reaction and the absorbance at 360 nm was measured using a TECAN I Control spectrophotometer. Absorbance measurements were made every 5 to 10 min over a period of up to 240 min. A reaction with addition of 10 μl MilliQ water instead was used to determine and subtract the background absorbance. As substrates the following amino acids were used: D- or L-phenylalanine, D- or L-hydroxyphenylglycine, D- or L-phenylglycine, L-tryptophan, L-valine, L-cysteine, and L-leucine.

[2] = PPi release assay, adenylation activity with L-phenylglycine; conditions: for Formed PPi: substrate L-PG 1 mM
Text: as §1, §2

[3] = PPi release assay, adenylation activity with D-phenylglycine; conditions: for Formed PPi: substrate D-PG 1 mM
Text: as §1, §2

[4] = PPi release assay, adenylation activity with D-phenylalanine; conditions: substrate D-phenylalanine
Text: as §1, §2

[5] = PPi release assay, adenylation activity with D-hydroxyphenylglycine
Text: as §1, §2

[6] = PPi release assay, adenylation activity with L-phenylalanine; conditions: substrate L-phenylalanine
Text: as §1, §2

[7] = co-purified with Tcp13, or Tcp17 or VMbtH
[8] = protein alone, without MbtH-like protein
[9] = substrate D-hydroxyphenylglycine, protein alone, without MbtH-like protein
[10] = co-purified with MbtH-like protein Tcp13
[11] = co-purified with MbtH-like protein Tcp 13
[12] = co-purified with MbtH-like protein Tcp 17
[13] = co-purified with MbtH-like protein VMbtH

Teg7_M1_A: purified adenylation domain of Teg7 module M1 (SEQ ID NO: 27); uncultured soil bacterium
adenylation activity (PPi release assay) ([1]; co-purified with MbtH-like protein TMbtH): the same specificity
adenylation activity (PPi release assay) [1, 7]: no adenylation activity
adenylation activity (absorption 360 nm, PPi release assay) [1, 8]: No adenylation activity
adenylation activity (PPi release assay) ([2]; substrate L-phenylglycine, co-purified with Tcp13, or Tcp17 or VMbtH): no adenylation activity
adenylation activity (PPi release assay) ([3]; substrate D-phenylglycine, co-purified with Tcp13, or Tcp17 or VMbtH): no adenylation activity
adenylation activity (PPi release assay) [4, 7]: no adenylation activity
adenylation activity (absorption 360 nm, PPi release assay) [4, 8]: No adenylation activity
adenylation activity (PPi release assay) ([5]; substrate D-hydroxyphenylglycine, co-purified with Tcp13, or Tcp17 or VMbtH): no adenylation activity
adenylation activity (absorption 360 nm, PPi release assay) [5, 9]: No adenylation activity
adenylation activity (PPi release assay) [6, 7]: no adenylation activity
adenylation activity (absorption 360 nm, PPi release assay) [6, 8]: No adenylation activity

Veg8_M1_A: purified adenylation domain of Veg8 module M1 (SEQ ID NO: 6), maltose binding protein fusion, His-tag; uncultured soil bacterium
Formed PPi ([1]; substrate L-HPG 0.1 mM, co-purified with MbtH-like protein Tcp 13): 0.56 mM/min/mM enzyme
Formed PPi ([1]; substrate L-HPG 0.1 mM, co-purified with MbtH-like protein Tcp 17): 0.70 mM/min/mM enzyme
Formed PPi ([1]; substrate L-HPG 0.1 mM, co-purified with MbtH-like protein VMbtH): 0.61 mM/min/mM enzyme
Formed PPi ([1]; substrate L-HPG 1 mM, co-purified with MbtH-like protein Tcp 13): 0.59 mM/min/mM enzyme
Formed PPi ([1]; substrate L-HPG 1 mM, co-purified with MbtH-like protein Tcp 17): 0.64 mM/min/mM enzyme
Formed PPi ([1]; substrate L-HPG 1 mM, co-purified with MbtH-like protein VMbtH): 0.61 mM/min/mM enzyme
adenylation activity (absorption 360 nm, PPi release assay) [1, 10]: clear adenylation activity
adenylation activity (absorption 360 nm, PPi release assay) [1, 8]: very minor adenylation activity
Formed PPi [2, 11]: 0.17 mM/min/mM enzyme
Formed PPi [2, 12]: 0.14 mM/min/mM enzyme
Formed PPi [2, 13]: 0.20 mM/min/mM enzyme
Formed PPi [3, 11]: 0.01 mM/min/mM enzyme
Formed PPi [3, 12]: 0.02 mM/min/mM enzyme
Formed PPi [3, 13]: 0.02 mM/min/mM enzyme
adenylation activity (absorption 360 nm, PPi release assay) [4, 10]: no activity
adenylation activity (absorption 360 nm, PPi release assay) [4, 8]: no activity
Formed PPi ([5]; substrate D-HPG 0.1 mM, co-purified with MbtH-like protein Tcp 13): 0.14 mM/min/mM enzyme
Formed PPi ([5]; substrate D-HPG 0.1 mM, co-purified with MbtH-like protein Tcp 17): 0.17 mM/min/mM enzyme
Formed PPi ([5]; substrate D-HPG 0.1 mM, co-purified with MbtH-like protein VMbtH): 0.18 mM/min/mM enzyme
Formed PPi ([5]; substrate D-HPG 1 mM, co-purified with MbtH-like protein Tcp 13): 0.92 mM/min/mM enzyme
Formed PPi ([5]; substrate D-HPG 1 mM, co-purified with MbtH-like protein Tcp 17): 1.03 mM/min/mM enzyme
Formed PPi ([5]; substrate D-HPG 1 mM, co-purified with MbtH-like protein VMbtH): 1.39 mM/min/mM enzyme
adenylation activity (absorption 360 nm, PPi release assay) ([5]; substrate D-hydroxyphenylglycine, co-purified with MbtH-like protein Tcp13): clear adenylation activity
adenylation activity (absorption 360 nm, PPi release assay) [5, 9]: no activity
adenylation activity (absorption 360 nm, PPi release assay) [6, 10]: no activity
adenylation activity (absorption 360 nm, PPi release assay) [6, 8]: no activity
